Experimental data reported in ChEMBL document CHEMBL2203269, “Target-Activated Prodrugs (TAPs) for the Autoregulated Inhibition of MMP12” (ACS Med Chem Lett, 2012).
Activity calls are given as the source filed them.

How the values were obtained:
[1] = molecular target: T1, Interstitial collagenase (Homo sapiens) (UniProt P03956); assay: Activity at MMP1
T1 sequence (whole entry): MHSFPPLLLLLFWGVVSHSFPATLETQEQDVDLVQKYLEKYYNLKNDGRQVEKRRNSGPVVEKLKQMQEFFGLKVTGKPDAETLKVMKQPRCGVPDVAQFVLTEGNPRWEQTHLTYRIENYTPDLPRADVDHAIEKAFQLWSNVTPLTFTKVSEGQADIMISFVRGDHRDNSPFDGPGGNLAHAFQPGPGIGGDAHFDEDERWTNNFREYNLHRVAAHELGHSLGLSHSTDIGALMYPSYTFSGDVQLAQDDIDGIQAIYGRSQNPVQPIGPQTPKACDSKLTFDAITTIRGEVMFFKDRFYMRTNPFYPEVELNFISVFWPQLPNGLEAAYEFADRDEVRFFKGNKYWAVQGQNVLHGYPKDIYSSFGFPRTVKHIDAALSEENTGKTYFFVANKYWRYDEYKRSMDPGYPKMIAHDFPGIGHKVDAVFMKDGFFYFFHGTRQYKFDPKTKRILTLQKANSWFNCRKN

[2] = molecular target: 72 kDa type IV collagenase (Homo sapiens) (UniProt P08253); assay: Activity at MMP2
[3] = molecular target: T2, Matrilysin (Homo sapiens) (UniProt P09237); assay: Activity at MMP7
T2 sequence (whole entry): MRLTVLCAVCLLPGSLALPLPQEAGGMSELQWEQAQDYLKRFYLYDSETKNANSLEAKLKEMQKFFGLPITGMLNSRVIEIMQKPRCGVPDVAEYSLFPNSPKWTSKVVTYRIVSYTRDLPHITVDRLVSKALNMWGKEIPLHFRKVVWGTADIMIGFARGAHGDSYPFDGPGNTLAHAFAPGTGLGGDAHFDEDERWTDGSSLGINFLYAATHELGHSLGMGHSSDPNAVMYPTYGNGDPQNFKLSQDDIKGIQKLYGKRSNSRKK

Measured: Activity

72 kDa type IV collagenase (Homo sapiens), sequence (P08253 110-660 limits assumed): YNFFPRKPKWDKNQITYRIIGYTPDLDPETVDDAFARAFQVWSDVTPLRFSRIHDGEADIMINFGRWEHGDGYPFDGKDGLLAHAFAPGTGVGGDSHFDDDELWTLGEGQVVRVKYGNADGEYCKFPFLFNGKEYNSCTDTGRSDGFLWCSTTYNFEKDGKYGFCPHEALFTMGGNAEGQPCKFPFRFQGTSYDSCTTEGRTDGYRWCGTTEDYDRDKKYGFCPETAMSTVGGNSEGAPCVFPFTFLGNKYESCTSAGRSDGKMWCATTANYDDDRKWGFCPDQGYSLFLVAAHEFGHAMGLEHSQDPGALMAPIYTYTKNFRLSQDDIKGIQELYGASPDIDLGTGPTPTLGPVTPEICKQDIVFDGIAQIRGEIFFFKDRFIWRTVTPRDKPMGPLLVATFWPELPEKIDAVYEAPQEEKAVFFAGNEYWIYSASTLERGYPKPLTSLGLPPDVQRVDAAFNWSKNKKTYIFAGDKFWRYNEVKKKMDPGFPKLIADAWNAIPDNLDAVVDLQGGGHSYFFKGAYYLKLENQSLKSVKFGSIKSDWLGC

CC(C)C[C@H](NC(=O)CN(C(=O)[C@H](CC(C)C)NC(=O)[C@@H]1CCCN1C(=O)OCc1ccccc1)S(=O)(=O)c1ccc(-c2ccccc2)cc1)C(=O)N[C@@H](CCC(=O)O)C(=O)N[C@@H](CCC(=O)O)C(=O)N[C@@H](C)C(N)=O
active: all assays above
